One data set addresses T1, human GLP-2 receptor (Homo sapiens, UniProt O95838, D470N).
T1 construct: expressed in transfected cells
T1 sequence (O95838 1-553 D470N): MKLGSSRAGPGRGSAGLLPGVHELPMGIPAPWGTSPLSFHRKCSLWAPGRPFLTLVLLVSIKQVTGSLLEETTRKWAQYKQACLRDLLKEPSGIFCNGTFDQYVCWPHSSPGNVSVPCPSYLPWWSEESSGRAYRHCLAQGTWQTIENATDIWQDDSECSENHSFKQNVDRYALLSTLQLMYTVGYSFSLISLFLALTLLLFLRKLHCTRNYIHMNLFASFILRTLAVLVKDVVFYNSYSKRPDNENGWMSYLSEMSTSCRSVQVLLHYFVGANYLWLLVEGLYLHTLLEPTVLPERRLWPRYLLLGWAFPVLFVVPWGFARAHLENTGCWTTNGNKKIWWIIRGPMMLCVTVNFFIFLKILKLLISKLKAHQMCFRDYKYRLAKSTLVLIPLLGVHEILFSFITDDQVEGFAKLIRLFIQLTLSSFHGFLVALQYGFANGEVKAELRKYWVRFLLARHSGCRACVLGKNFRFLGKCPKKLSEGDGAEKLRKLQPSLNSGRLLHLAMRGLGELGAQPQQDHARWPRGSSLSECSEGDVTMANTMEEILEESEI
As to the kind of experiment: GLP-2 receptor potency assay (cAMP ALPHASCREEN, HEK293 cells stably expressing GLP-2 R). It counts as cell-based. Particulars: cAMP response, HEK293 cells expressing human GLP-2 R; read-out: EC50 GLP-2. From the text: One useful in vitro assay for measuring GLP-1 and GLP-2 receptor activity is quantitation of cAMP, i.e. 3′-5′-cyclic adenosine monophosphate, which is a second messenger essential in many biological processes, and one of the most ubiquitous mechanisms for regulating cellular functions.
For subcloning into a mammalian expression vector, primers for subcloning were obtained from DNA-Technology, Risskov, Denmark. The 5′ and 3′ primers used for the PCR reaction include terminal restriction sites for cloning and the context of the 5′ primer is modified to a Kozak consensus without changing the sequence of the product encoded by the ORF. […] The generated PCR product was purified using GFX PCR and Gel band purification kit, digested with restriction enzymes and cloned into the mammalian expression vector using Rapid DNA Ligation Kit. Ligation reaction was transformed to XL10 Gold Ultracompetent cells and colonies were picked for DNA production using ENDOFREE® Plasmid maxi kit. Subsequent sequence analysis was conducted by MWG Eurofins, Germany.
HEK293 cells were transfected using the LIPOFECTAMINE® PLUS transfection method. The day before transfection, HEK293 cells were seeded in two T75 flasks at a density of 2×10^6 cells/T75 flask in cell culturing medium without antibiotics. On the day of transfection, cells were washed with 1× DPBS and medium was replaced with OPTI-MEM© to a volume of 5 mL/T75 flask before addition of LIPOFECTAMINE®-plasmid complexes were added gently and drop wise to the cells in T75 flasks and replaced with growth medium after 3 hours and again to growth medium supplemented with 500 μg/mL G418 after 24 hours. Following 4 weeks in G418 selection, clones were picked and tested in a functional GLP-2 receptor potency assay as described below.
The cAMP ALPHASCREEN® assay from Perkin Elmer was used to quantitate the cAMP response to activation of the GLP1 and GLP2 receptor, respectively. […] Data from test compounds eliciting an increase in the intracellular level of cAMP were normalized relative to the positive and negative control (vehicle) to calculate the EC50 and maximal response from the concentration response curve.
For orientation: Bead proximity is the source of the signal in Alpha formats.

A short description of data set [1]: Solubility assessment (turbidity absorbance at 325 nm). It counts as physicochemical. As for the experimental part: A stock solution of the test peptide (2 mg/ml; determined from the weighed amount of peptide) in demineralized water adjusted to pH 2.5 with HCl was prepared, and aliquots were diluted 1:1 in 100 mM acetate buffer (pH 4.0 and pH 5.0), 100 mM histidine buffer (pH 6.0 and pH 7.0) and 100 mM phosphate buffer (pH 6.0, pH 7.0 and pH 7.5), respectively, and loaded in a standard flat-bottom, non-sterile 96-well UV Microplate. The absorbance of samples (single samples, n=1) at 280 and 325 nm was measured in an absorbance-based plate reader, which was preheated to ambient temperature (typically 25° C.).

Data set [2] in a line: Chemical stability (RP-HPLC normalized purity after incubation at 40° C.). Particulars: pH 7, 40° C., 14-day incubation, 0.2 mg/ml, normalized purity (area-%). It counts as physicochemical. The procedure, abridged: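 Peptide at 0.2 mg/ml final in water adjusted to pH 6, 7, 7.5 or 9, incubated at 40° C for 14 days. Purity measured as main-peak area-% by C18 RP-HPLC (acetonitrile/TFA/water gradient, UV 220 nm) and normalized to T=0 set at 100 for each pH.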

Like-named read-outs stand apart in the source and are kept apart here. *1 amine or outer side, *2 acyl side, *3 side chain or, on linkers, in order; H or OH if unused. Where a SMILES comes first, the peptide text is derived from it. Side-chain parts run from the residue outwards. [ ]: non-standard residue; d: D form. The star is where a group is joined. C20 diacid = O=C(O)CCCCCCCCCCCCCCCCCCC(=O)*; γGlu = O=C(O)[C@H](CCC(=O)[*:2])N[*:1]; AEEA = NCCOCCOCC(=O)O; Aib = CC(C)(N)C(=O)O A value given as a limit tells only on which side of the number the result lay.

In general, EC50 refers to the midpoint of the concentration-response curve. The solubility is the concentration that dissolves in the medium under given conditions. On to `CC[C@H](C)[C@H](NC(=O)[C@H](Cc1ccccc1)NC(=O)[C@H](CC(=O)O)NC(=O)[C@H](CCCNC(=N)N)NC(=O)[C@H](C)NC(=O)[C@H](C)NC(=O)[C@H](CCC(N)=O)NC(=O)[C@H](CCCCNC(=O)CC[C@H](NC(=O)CCCCCCCCCCCCCCCCC(=O)O)C(=O)O)NC(=O)[C@H](CC(=O)O)NC(=O)[C@H](CC(C)C)NC(=O)[C@@H](NC(=O)[C@@H](NC(=O)[C@H](C)NC(=O)[C@H](CC(C)C)NC(=O)[C@H](CCC(=O)O)NC(=O)[C@H](CO)NC(=O)[C@H](CO)NC(=O)[C@H](Cc1ccccc1)NC(=O)[C@@H](NC(=O)CNC(=O)[C@H](CCC(=O)O)NC(=O)C(C)(C)NC(=O)[C@@H](N)Cc1c[nH]cn1)[C@@H](C)O)[C@@H](C)O)[C@@H](C)CC)C(=O)N[C@@H](C)C(=O)N[C@@H](Cc1c[nH]c2ccccc12)C(=O)N[C@@H](CC(C)C)C(=O)N[C@H](C(=O)N[C@@H](CCC(N)=O)C(=O)N[C@@H](Cc1c[nH]cn1)C(=O)N[C@@H](CCCCN)C(=O)N[C@H](C(=O)N[C@H](C(=O)N[C@@H](CC(=O)O)C(=O)O)[C@@H](C)O)[C@@H](C)CC)[C@@H](C)CC` [Compound 17] (HELM PEPTIDE1{H.[Aib].E.G.T.F.S.S.E.L.A.T.I.L.D.K.Q.A.A.R.D.F.I.A.W.L.I.Q.H.K.I.T.D}|PEPTIDE2{[O=C(O)CCCCCCCCCCCCCCCCC(=O)[*:2]].[gGlu]}$PEPTIDE1,PEPTIDE2,16:R3-2:R2$$$V2.0), for which the 50% effective concentration (EC50) at human GLP-2 receptor was determined as 330 pM. Also, the solubility is less than 1000 µg/mL in data set [1] (100 mM acetate buffer pH 4.0, ambient temperature, read-out: Solubility Acetate buffer pH 4); less than 1000 µg/mL in data set [1] (100 mM acetate buffer pH 5.0, ambient temperature, read-out: Solubility Acetate buffer pH 5); not below 1000 µg/mL in data set [1] (100 mM histidine buffer pH 6.0, ambient temperature, read-out: Solubility Histidine buffer pH 6); not below 1000 µg/mL in data set [1] (100 mM histidine buffer pH 7.0, ambient temperature, read-out: Solubility Histidine buffer pH 7); not below 1000 µg/mL in data set [1] (100 mM phosphate buffer pH 6.0, ambient temperature, read-out: Solubility Phosphate buffer pH 6); not below 1000 µg/mL in data set [1] (100 mM phosphate buffer pH 7.0, ambient temperature, read-out: Solubility Phosphate buffer pH 7). In addition, in data set [1] (100 mM phosphate buffer pH 7.5, ambient temperature, read-out: Solubility Phosphate buffer pH 7.5), the solubility is not below 1000 µg/mL.
`CC[C@H](C)[C@H](NC(=O)[C@H](Cc1ccccc1)NC(=O)[C@H](CC(=O)O)NC(=O)[C@H](CCCNC(=N)N)NC(=O)[C@H](C)NC(=O)[C@H](C)NC(=O)[C@H](CCC(N)=O)NC(=O)[C@H](CCC(=O)O)NC(=O)[C@H](CC(=O)O)NC(=O)[C@H](CC(C)C)NC(=O)[C@@H](NC(=O)[C@@H](NC(=O)[C@H](C)NC(=O)[C@H](CCCCNC(=O)COCCOCCNC(=O)COCCOCCNC(=O)CC[C@H](NC(=O)CCCCCCCCCCCCCCCCCCC(=O)O)C(=O)O)NC(=O)[C@H](CCC(=O)O)NC(=O)[C@H](CO)NC(=O)[C@@H](NC(=O)[C@H](Cc1ccccc1)NC(=O)[C@H](CO)NC(=O)CNC(=O)[C@H](CCC(=O)O)NC(=O)C(C)(C)NC(=O)[C@@H](N)Cc1c[nH]cn1)[C@@H](C)O)[C@@H](C)O)[C@@H](C)CC)C(=O)N[C@@H](C)C(=O)N[C@@H](Cc1c[nH]c2ccccc12)C(=O)N[C@@H](CC(C)C)C(=O)N[C@H](C(=O)N[C@@H](CCC(=O)O)C(=O)N[C@@H](Cc1c[nH]cn1)C(=O)N[C@@H](CCCCN)C(=O)N[C@H](C(=O)N[C@H](C(=O)N[C@@H](CC(=O)O)C(=O)O)[C@@H](C)O)[C@@H](C)CC)[C@@H](C)CC` [Compound 42] (H-H[Aib]EGSFTSEK([AEEA-AEEA-γGlu-C20 diacid])ATILDEQAARDFIAWLIEHKITD-OH): the EC50 on human GLP-2 receptor amounted to 330 pM. Besides, in data set [2], the “pH 7 normalized stability” value is given as “A (>90% normalised stability)”.
